# Literature values as cited in US20030235623A1, “Aqueous disinfecting compositions with rapid bactericidal effect” (priority 2002, published 2003).
# Tested on: some bacteria
smiles,measurement,value
OO [Hydrogen peroxide],concentration known to inhibit the growth of some bacteria,25 mg/L
